Columns and labels:
skin wounds = assay: Wound healing activity; assay type: in vivo, male Vistar white rats
Protocol: The study of the wound healing properties of the compositions was carried out on male Vistar white rats. In 38 animals that were anesthetized with diethyl ether for 2-4 min., A 2 by 2 cm skin area was cut out on the dorsal side of the body, behind the right shoulder blade. The skin was taken with tweezers, it was pulled back, the skin fragment was cut 2 cm in size, wound depth 2 mm, the average area of the wound was 4±1.0 cm^2.
The resulting wounds of a polygonal shape were intensively bleeding. Then the wounds of animals first and second groups (10 in each), D1 and D2 compositions were applied.
The wounds of rats of the 3rd group were treated with Dexpanthenol (DP), the 4th group of 8 animals was the control group, the wounds of these animals were not treated. The compositions in contact with blood formed a gel form, it was covering entire surface of the wound and capture a small fragment of surrounding skin around the wound.
The glue BF-6 was applied on top of the gel, dried and the animals were released into cells.
The planimetric studies of the wounds were carried out from 1st day of experiment on the 3rd, 6th, 9th, 11th, and 13th days, which made it possible to judge the features of reparative processes.
The measurement of the area of the wounds was carried out as follows: on the celluloid film which was covering the wound entirely, contours were applied, after which the area of the wound surface was determined using graph paper.

HeLa-2 tumor cells = assay: Minimum active dose and cytopathic effect in HeLa-2 cell culture; assay type: cell-based; conditions: minimum amount causing degeneration of 90-95% of the cells; medium 199; monitored 5 days
Protocol: Determination of the anticancer activity of MATR in the cell culture was performed in a HeLa-2 cell culture. The different amount of MATR from 2 to 12 μg/ml of medium was added to medium 199. (see table 1). For the control a culture was without MATR. Cell cultures were monitored for 5 days with daily viewing. The minimum active dose (MAD) of MATR was considered to be its minimum amount, which caused degeneration of 90-95% of the cells (Table 2)

Schwez leukemia = assay: Antitumor activity on Shvets leukemia; assay type: in vivo, Outbred white rats; conditions: injected dose 9.1*3 = 27.3 mg/kg intraperitoneal
[1] = Toxic dose LD50 and lethal dose LD100; assay type: in vivo
Protocol: The compositions (MATR and Taxotere) were administered intraperitoneally three times with an interval of two hours in 0.5 ml. For MATR injection aqueous solution was used. The total doses of the compositions were 34.0, 68.0, 84.0, 102.0 and 136 mg/kg. The number of dead animals in each group was confirmed every 24-48 hours. The calculation of the toxic dose, LD50, was carried out according to the protocol. The lethal dose, […], was determined experimentally.

Compound	Wound Area (S) during the observation (skin wounds; 1-3 days) [cm2]	Wound Area (S) during the observation (skin wounds; 3-6 days) [cm2]	Wound Area (S) during the observation (skin wounds; 6-9 days) [cm2]	Wound Area (S) during the observation (skin wounds; 9-11 days) [cm2]	Wound Area (S) during the observation (skin wounds; 11-13 days) [cm2]	MAD (minimum active dose) (HeLa-2 tumor cells) [µg/mL]	Tumor volume (Schwez leukemia) [cm3]	LD50 ([1]; in vivo, intraperitoneal) [mg/kg]	toxicity of the control compound (dose in brackets) ([1]; intraperitoneally three times with an interval of two hours) [mg/kg]
CC(C)(CO)[C@@H](O)C(=O)NCCCO [DP, Dexpanthenol]	4.1 ± 1.0	3.2 ± 0.3	2.4 ± 0.3	1.0 ± 0.3	0.3 ± 0.1				
CC(=O)O[C@@]12CO[C@@H]1C[C@H](O)[C@@]1(C)C(=O)[C@H](O)C3=C(C)[C@@H](OC(=O)[C@H](O)[C@@H](NC(=O)OC(C)(C)C)c4ccccc4)C[C@@](O)([C@@H](OC(=O)c4ccccc4)[C@H]21)C3(C)C [Taxotere]						10	0.73	120	120

Reference: patent US11053608B2, “Combinatorial derivatives of RNA oligonucleotides” (priority 2017, dated 2021)
